Experimental data reported in ChEMBL document CHEMBL3244165, “Improved synthesis and in vitro antiviral activities of 5-cyanouridine and 5-cyano-2'-deoxyuridine” (J Med Chem, 1977).

Each molecule was assayed on Vaccinia virus (assay: Antiviral activity against Vaccinia virus infected in human skin fibroblasts assessed as inhibition of virus-induced cytopathogenicity).
Type: functional, Orthopoxvirus vaccinia
With `O=c1[nH]c(=O)n([C@H]2C[C@H](O)[C@@H](CO)O2)cc1Cl` [CHLORODEOXYURIDINE] the ID50 was 1.5 ×10⁻⁶ M.
Work on `N#Cc1cn([C@H]2C[C@H](O)[C@@H](CO)O2)c(=O)[nH]c1=O` yielded an ID50 of 2.7 ×10⁻⁵ M.
`O=c1[nH]c(=O)n([C@H]2C[C@H](O)[C@@H](CO)O2)cc1C(F)(F)F` [TRIFLURIDINE] gave an ID50 of 1.3 ×10⁻⁶ M.
`N#Cc1cn([C@@H]2O[C@H](CO)[C@@H](O)[C@H]2O)c(=O)[nH]c1=O` was tested, and the ID50 was >7 ×10⁻⁴ M.
`O=c1[nH]c(=O)n([C@H]2C[C@H](O)[C@@H](CO)O2)cc1Br` [BROXURIDINE] gave an ID50 of 6.5 ×10⁻⁷ M.
In the case of `O=c1[nH]c(=O)n([C@H]2C[C@H](O)[C@@H](CO)O2)cc1F` [FLOXURIDINE], the ID50 is reported as 4 ×10⁻⁷ M.
Molecule `O=c1[nH]c(=O)n([C@H]2C[C@H](O)[C@@H](CO)O2)cc1I` [IDOXURIDINE] has an ID50 of 1.1 ×10⁻⁶ M.
Molecule `Nc1ncnc2c1ncn2[C@@H]1O[C@H](CO)[C@@H](O)[C@@H]1O` [VIDARABINE] has an ID50 of 2.6 ×10⁻⁵ M.
